Here are results for two molecules from publication PMC7002685, “Inhibition of vascular calcification by inositol phosphates derivatized with ethylene glycol oligomers” (Nature Communications, 2020).

The nature of data set [1]: Precipitation in culture medium (naked eye, microscope). Format: physicochemical. The following applies: 100 µM, VSMC and macrophage assays. The method, then:
Macrophage accumulation and inflammation coincide with the initial phase of calcification. To this end, VSMCs and THP-1-derived macrophages were exposed to CPP2-supplemented medium. CPP2 prepared from human serum as described previously[61] (Supplementary Figs. 6 and 7), induced a pronounced VSMC monolayer calcification after 48 h, which was decreased by (OEG2)2-IP4 in a dose-dependent fashion, and the effect became significant at 10 µM (Fig. 3e). […] Both H2O2 (proxy for oxidative stress) and tumor necrosis factor-alpha (TNF-α) (proxy for inflammatory response) levels were assayed in the VSMC culture supernatants subsequent to CPP2 treatment with and without compounds[30]. However, no increase in H2O2 nor TNF-α compared to control could be detected in either assay. For the CPP-induced VSMC calcification assay (Fig. 3e) a roughly 10-fold higher concentration of (OEG2)2-IP4 was necessary to achieve similar activity as in the CaP-induced VSMC calcification assay (Fig. 3b). […]
Occurrence of precipitation in the different treatment groups was assessed visually by the naked eye and by a microscope (CTR6000, Leica Camera AG) at ×25 magnification at 0 and 24 h (performed once in duplicate).

The next data set has as its system Potassium Channel [KATP]. The data set is described as follows: Off-target 265600. The class given is binding, Hamster. The following applies: 10 µM. The method, then: (§1) The potential off-target activity of 10 µM (OEG2)2-IP4 was assessed against a panel of 87 enzymes, receptors, or ion channels that are used in standard safety pharmacology screens.
(§2) 3.2. Off-target screening assay
(§3) The experiments were conducted by a contract research organization (Eurofins Panlabs Discovery
(§4) Services Taiwan, Ltd.) and details on the respective assays can be retrieved via the catalog number
(§5) provided in Supplementary Table 11 from the company’s webpage
(§6) (https://www.eurofinsdiscoveryservices.com/). […]

In a further data set the target is T1, Monoamine Oxidase MAO-B (Homo sapiens, UniProt P27338).
T1 construct: purchased Eurofins Panlabs Discovery Services Taiwan, Ltd
Briefly: Off-target 140120. Format: biochemical. The method, then: as §1, §2
(§7) The experiments were conducted by a contract research organization (Eurofins Panlabs Discovery Services Taiwan, Ltd.) and details on the respective assays can be retrieved via the catalog number provided in Supplementary Table 11 from the company’s webpage
as §6
(§8) At sacrifice the left tibia of animals of the rat model with dietary adenine/high-phosphate-induced uremia and VC was collected, fixed with 70% v/v EtOH and embedded in methyl methacrylate. The trabecular bone compartment is known to be the most metabolic active i.e. actively re-structured bone compartment in CKD. Therefore, histomorphometric and micro-computed tomography (µCT) analysis of bone was performed on the trabecular compartment. Tibial sections were Goldner-stained for histomorphometric analysis of the proximal metaphysis using the AxioVision Release 4.5 software, as […]
(§9) described previously5. […]

The target in data set [2] is T2, (Rattus norvegicus, UniProt P15823).
T2 construct: purchased Eurofins Panlabs Discovery Services Taiwan, Ltd
The data set is described as follows: Off-target 203200. The class given is binding. The method, then: as §1, §2, §7, §6, §8, §9

Another data set concerns Androgen (Testosterone). Briefly: Off-target 206000. The class given is binding, Human. The following applies: 10 µM. The method, then:
as §1, §2, §3, §4, §5, §6

Data set [3] concerns the target T3, Serotonin (5-Hydroxytryptamine) 5-HT1B (Homo sapiens, UniProt P28222).
T3 construct: purchased Eurofins Panlabs Discovery Services Taiwan, Ltd
The data set is described as follows: Off-target 271230. Format: binding. The method, then: as §1, §2, §7, §6, §8, §9

Data set [4] has as its system GABAA, Chloride Channel, TBOB. The data set is described as follows: Off-target 226810. The class given is binding, Rat. To be noted: 10 µM. The protocol: as §1, §2, §3, §4, §5, §6
Data set [5] concerns GABAA, Flunitrazepam, Central. The data set is described as follows: Off-target 226600. The class given is binding, Rat. To be noted: 10 µM. The protocol: as §1, §2, §3, §4, §5, §6
Data set [6] can be described thus: Serum PTH and FGF-23 in adenine model. Format: in vivo, rat. From the text: However, clearly the bone mineralization may be affected by the mode of action. The effects of the compound on the bone is not sufficiently investigated, and this limitation not sufficiently discussed, since similar to the adenin model, CKD patients may be the prime patient population for treatment. The bone structure should be documented by µCT. Is there an effect of the compound on the mechanical properties? Am I missing the effects of the compound on bone in healthy animals – this would seem decisive?
In response to the reviewer’s comment we investigated the (3D) bone structure of vehicle and (OEG2)2-IP4 treated CKD animals by µCT analysis and compared the results to that of bone samples from control (non-CKD) male Wistar rats of the same age. […]
because of (1) ethical considerations (aiming to limit the number of animals), (2) the primary end-point of the study was to evaluate the effect of (OEG2)2-IP4 on the development of vascular calcification, which was of no relevance for control (non-CKD) animals as they do not develop vascular calcification. […]
In response to the reviewer’s comment we measured concentrations of PTH and FGF-23 in the serum of CKD animals of vehicle and (OEG2)2-IP4 groups both at baseline and at sacrifice. […]

The structures appear in SMILES notation.

T1 sequence (P27338 whole entry): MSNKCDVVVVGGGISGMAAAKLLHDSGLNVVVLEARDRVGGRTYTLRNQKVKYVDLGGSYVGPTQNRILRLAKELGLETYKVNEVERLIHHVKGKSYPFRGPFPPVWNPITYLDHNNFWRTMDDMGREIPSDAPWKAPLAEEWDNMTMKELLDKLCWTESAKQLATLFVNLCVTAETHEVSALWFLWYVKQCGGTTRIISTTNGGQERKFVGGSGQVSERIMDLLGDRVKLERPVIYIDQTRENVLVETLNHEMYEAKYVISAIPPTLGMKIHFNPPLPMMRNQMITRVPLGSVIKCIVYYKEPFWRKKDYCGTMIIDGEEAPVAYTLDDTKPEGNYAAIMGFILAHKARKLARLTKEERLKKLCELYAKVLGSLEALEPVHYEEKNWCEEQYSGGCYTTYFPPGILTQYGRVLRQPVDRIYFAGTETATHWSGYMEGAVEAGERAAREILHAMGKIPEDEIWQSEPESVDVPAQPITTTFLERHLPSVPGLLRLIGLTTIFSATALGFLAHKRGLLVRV
T3 sequence (P28222 whole entry): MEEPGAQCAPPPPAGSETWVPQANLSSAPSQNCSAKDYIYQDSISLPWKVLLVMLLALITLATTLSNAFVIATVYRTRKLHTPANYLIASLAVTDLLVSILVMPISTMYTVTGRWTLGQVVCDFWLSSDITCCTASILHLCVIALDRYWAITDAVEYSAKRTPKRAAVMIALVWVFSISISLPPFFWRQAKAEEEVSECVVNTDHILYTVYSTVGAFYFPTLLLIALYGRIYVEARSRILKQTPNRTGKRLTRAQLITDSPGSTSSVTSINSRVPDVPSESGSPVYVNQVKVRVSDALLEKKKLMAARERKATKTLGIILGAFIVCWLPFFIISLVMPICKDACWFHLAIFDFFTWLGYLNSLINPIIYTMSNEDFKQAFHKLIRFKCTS
T2 sequence (P15823 whole entry): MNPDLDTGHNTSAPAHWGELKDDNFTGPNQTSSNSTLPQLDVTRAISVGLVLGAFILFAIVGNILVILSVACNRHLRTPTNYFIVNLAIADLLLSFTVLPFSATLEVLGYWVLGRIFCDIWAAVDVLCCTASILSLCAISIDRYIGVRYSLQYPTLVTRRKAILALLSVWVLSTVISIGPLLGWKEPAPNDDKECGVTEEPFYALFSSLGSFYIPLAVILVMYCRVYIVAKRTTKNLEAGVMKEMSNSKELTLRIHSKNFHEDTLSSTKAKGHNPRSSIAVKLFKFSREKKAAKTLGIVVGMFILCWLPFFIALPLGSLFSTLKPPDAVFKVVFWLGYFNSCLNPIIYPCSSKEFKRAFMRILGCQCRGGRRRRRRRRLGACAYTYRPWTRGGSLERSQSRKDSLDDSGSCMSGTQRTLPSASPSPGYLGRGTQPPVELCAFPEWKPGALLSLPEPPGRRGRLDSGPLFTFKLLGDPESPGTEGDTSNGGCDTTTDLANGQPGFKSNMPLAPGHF

With `O=P(O)(O)O[C@H]1[C@H](OP(=O)(O)O)[C@@H](OP(=O)(O)O)[C@H](OP(=O)(O)O)[C@@H](OP(=O)(O)O)[C@H]1OP(=O)(O)O` [IP6, myo-Inositol hexakisphosphate], the “precipitation in culture medium” value in [1] is “precipitation in culture medium occurred”.

In the case of `COCCOCCO[C@@H]1[C@@H](OP(=O)(O)O)[C@H](OCCOCCOC)[C@@H](OP(=O)(O)O)[C@@H](OP(=O)(O)O)[C@H]1OP(=O)(O)O` [(OEG2)2-IP4, 4,6-Di-O-(methoxy-diethyleneglycol)-myo-inositol-1,2,3,5-tetrakis(phosphate)], the “% Inhibition” value with Potassium Channel [KATP] is recorded as 14%; in the data set on Androgen (Testosterone) it was 12%; in [4], -19%; in [5], -7%. In addition, the values for the inhibition at 10 µM (at Monoamine Oxidase MAO-B; in data set [2]; in data set [3]) were 0%, 5% and -4%, respectively. Also, in data set [6] (5, 15, 50 mg/kg), the “serum PTH levels” value is listed as “did not differ between treatment groups”. In data set [6] (lowest (5 mg/kg) dose), the “serum FGF-23 compared to vehicle” value was “significantly higher”.

By % Inhibition is commonly meant the relative decrease from the control value, in per cent. Usually inhibition stands for the relative decrease from the control value, in per cent.
